Measurements published in patent US20150087627A1, “COMBINATION OF KINASE INHIBITORS AND USES THEREOF” (Intellikine LLC, priority 2011, published 2015).
pIC50: −log10 of the molar value. Like-named read-outs stand apart in the source and are kept apart here.

What was measured:
Assay type in all cases: biochemical
PI3K α (p110α/p85α) = biological target: T1, PI3K α (p110α/p85α) (Homo sapiens, UniProt P42336); assay: PI 3-Kinase (human) HTRF assay, PI3K α; conditions: read-out: PI3K α IC50
T1 construct: purchased Upstate / Millipore Corporation

PI3K β (p110β/p85α) = biological target: T2, PI3K β (p110β/p85α) (Homo sapiens, UniProt P42338); assay: PI 3-Kinase (human) HTRF assay, PI3K β; conditions: read-out: PI3K β IC50
T2 construct: purchased Upstate / Millipore Corporation

PI3K γ (p110γ) = biological target: T3, PI3K γ (p110γ) (Homo sapiens, UniProt P48736); assay: PI 3-Kinase (human) HTRF assay, PI3K γ; conditions: for pIC50: read-out: PI3K γ IC50
T3 construct: purchased Upstate / Millipore Corporation

PI3K δ = biological target: T4, PI3K δ (Homo sapiens, UniProt O00329); assay: PI 3-Kinase (human) HTRF assay, PI3K δ
T4 construct: purchased Upstate / Millipore Corporation
T4 sequence (O00329 whole entry): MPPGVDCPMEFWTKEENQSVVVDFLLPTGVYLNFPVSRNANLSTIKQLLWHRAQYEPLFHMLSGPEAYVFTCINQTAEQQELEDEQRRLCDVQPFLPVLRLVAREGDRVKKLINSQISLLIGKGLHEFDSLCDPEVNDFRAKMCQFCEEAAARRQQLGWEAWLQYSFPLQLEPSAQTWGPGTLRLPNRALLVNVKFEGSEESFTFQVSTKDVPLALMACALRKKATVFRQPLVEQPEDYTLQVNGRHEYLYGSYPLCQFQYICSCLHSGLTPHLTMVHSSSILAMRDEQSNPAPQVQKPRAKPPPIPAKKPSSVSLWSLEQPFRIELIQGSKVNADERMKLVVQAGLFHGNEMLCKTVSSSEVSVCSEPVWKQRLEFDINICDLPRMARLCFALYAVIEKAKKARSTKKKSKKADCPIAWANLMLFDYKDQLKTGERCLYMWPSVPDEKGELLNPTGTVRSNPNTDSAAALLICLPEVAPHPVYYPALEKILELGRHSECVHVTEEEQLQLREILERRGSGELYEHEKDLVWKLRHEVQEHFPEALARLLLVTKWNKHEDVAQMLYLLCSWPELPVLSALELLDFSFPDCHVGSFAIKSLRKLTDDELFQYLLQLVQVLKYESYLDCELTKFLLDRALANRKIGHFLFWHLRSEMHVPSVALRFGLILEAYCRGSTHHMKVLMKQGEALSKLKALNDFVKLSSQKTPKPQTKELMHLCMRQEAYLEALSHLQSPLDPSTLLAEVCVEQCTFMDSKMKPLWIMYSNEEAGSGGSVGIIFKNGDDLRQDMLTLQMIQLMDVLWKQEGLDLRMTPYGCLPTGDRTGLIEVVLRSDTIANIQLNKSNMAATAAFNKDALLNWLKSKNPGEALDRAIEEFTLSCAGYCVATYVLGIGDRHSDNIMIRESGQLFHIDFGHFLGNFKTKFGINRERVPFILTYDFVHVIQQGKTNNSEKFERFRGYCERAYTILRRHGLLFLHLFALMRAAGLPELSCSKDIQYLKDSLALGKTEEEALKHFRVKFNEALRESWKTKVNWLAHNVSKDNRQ
T4 sequence (P27986 whole entry partner): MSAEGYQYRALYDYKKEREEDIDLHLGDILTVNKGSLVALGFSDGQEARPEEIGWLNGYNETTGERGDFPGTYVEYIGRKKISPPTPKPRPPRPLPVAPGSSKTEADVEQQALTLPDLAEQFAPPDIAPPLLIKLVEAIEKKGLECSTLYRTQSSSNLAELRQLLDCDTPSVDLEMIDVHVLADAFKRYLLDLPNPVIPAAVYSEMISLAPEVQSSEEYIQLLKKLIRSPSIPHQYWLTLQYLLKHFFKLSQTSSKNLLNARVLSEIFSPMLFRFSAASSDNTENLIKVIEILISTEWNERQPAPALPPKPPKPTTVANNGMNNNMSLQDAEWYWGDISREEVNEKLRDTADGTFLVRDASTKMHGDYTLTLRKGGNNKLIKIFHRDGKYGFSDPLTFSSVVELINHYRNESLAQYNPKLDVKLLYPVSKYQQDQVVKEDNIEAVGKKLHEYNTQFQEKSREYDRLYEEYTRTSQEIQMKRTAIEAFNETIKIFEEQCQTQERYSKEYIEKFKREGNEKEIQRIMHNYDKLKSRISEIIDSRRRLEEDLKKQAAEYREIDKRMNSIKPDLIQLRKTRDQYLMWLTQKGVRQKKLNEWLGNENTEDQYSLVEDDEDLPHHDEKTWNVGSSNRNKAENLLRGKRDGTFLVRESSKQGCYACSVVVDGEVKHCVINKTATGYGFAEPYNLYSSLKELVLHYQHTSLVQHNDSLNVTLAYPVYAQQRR

T2 sequence (P42338 whole entry): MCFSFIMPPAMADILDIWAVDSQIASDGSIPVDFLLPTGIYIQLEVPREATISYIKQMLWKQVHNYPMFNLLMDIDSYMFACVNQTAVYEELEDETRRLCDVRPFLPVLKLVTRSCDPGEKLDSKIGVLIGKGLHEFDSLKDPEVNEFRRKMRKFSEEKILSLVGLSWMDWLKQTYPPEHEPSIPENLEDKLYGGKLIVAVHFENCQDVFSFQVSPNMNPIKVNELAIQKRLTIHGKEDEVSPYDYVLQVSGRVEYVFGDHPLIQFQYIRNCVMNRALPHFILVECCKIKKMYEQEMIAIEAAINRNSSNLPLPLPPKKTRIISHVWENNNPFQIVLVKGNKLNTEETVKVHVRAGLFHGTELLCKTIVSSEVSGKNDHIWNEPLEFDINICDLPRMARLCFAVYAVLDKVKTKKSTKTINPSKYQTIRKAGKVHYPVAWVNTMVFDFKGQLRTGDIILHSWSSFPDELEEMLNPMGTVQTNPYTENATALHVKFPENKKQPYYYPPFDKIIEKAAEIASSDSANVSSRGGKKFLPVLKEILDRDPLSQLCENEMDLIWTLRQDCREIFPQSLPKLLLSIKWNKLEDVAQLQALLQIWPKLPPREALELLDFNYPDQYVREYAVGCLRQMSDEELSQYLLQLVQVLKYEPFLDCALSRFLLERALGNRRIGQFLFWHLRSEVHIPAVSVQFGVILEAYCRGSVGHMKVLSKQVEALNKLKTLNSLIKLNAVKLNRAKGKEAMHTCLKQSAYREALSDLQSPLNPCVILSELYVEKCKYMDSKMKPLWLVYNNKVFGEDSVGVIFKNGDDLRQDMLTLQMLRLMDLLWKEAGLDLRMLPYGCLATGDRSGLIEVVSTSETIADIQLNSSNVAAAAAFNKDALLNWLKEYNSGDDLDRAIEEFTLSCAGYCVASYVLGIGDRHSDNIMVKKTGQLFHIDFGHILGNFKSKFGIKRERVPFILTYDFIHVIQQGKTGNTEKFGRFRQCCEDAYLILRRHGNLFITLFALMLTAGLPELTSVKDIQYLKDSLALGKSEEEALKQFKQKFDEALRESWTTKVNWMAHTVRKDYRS
T2 sequence (P27986 whole entry partner): as the sequence (P27986 whole entry partner) above
T1 sequence (P42336 whole entry): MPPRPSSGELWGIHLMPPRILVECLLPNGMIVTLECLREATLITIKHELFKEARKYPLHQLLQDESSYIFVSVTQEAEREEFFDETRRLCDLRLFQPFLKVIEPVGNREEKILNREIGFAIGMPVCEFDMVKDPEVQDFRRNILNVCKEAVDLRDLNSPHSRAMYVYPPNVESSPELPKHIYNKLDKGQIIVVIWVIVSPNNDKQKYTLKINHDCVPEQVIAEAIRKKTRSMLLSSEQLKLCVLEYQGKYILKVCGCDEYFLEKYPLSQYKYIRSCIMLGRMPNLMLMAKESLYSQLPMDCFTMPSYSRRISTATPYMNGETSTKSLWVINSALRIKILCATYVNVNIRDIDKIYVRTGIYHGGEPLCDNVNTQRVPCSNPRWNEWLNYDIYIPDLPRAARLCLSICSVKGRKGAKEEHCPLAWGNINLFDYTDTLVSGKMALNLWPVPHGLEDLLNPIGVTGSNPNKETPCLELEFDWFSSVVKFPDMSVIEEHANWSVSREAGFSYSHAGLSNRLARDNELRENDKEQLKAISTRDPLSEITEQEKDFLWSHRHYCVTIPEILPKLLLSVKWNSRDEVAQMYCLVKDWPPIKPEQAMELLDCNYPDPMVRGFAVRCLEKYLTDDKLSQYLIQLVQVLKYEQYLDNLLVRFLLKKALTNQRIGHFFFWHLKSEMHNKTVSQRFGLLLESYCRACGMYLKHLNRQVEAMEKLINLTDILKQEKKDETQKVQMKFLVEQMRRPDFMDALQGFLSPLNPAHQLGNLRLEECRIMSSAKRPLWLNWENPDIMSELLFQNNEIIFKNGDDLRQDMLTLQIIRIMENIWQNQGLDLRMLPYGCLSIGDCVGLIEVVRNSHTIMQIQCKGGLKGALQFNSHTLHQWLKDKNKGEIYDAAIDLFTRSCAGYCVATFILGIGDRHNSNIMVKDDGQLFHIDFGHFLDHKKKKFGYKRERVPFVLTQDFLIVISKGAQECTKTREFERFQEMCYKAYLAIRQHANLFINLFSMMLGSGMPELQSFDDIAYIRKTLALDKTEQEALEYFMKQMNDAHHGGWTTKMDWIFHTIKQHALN
T1 sequence (P27986 whole entry partner): as the sequence (P27986 whole entry partner) above
T3 sequence (P48736 whole entry): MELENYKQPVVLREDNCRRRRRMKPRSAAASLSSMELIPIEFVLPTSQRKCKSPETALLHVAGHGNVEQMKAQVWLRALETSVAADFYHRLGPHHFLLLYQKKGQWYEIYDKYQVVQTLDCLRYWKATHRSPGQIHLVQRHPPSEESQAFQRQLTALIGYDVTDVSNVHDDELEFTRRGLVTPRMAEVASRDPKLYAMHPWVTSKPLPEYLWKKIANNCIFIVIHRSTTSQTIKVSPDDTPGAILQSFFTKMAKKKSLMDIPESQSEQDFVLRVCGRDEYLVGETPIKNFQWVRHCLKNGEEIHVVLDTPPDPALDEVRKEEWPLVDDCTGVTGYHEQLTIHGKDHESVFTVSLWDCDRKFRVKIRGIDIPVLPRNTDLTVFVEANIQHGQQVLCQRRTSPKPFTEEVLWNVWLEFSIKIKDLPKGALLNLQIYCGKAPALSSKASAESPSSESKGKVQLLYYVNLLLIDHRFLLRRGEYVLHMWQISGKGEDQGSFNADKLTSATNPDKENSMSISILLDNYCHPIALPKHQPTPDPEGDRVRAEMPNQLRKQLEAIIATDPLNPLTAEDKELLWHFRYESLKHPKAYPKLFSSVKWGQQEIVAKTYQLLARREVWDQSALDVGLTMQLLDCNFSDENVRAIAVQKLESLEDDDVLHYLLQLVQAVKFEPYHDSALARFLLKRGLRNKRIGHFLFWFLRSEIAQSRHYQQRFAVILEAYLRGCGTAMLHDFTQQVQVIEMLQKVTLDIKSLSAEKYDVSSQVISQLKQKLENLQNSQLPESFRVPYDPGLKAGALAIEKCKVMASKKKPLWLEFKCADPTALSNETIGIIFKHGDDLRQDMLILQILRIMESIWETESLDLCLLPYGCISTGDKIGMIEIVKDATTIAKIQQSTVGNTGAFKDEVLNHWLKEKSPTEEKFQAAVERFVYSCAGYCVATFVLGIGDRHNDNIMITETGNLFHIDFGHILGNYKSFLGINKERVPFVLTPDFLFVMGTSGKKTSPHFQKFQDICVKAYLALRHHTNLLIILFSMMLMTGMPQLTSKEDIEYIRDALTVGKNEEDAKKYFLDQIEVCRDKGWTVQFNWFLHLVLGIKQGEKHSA

| Compound | pIC50 (PI3K α (p110α/p85α)) | pIC50 (PI3K β (p110β/p85α)) | pIC50 (PI3K γ (p110γ)) | pIC50 (PI3K δ; read-out: PI3K δ IC50) | IC50 (PI3K γ (p110γ); PI3K γ IC50 (nM)) | pIC50 (PI3K δ) |
| --- | --- | --- | --- | --- | --- | --- |
| Nc1nc2cc(-c3ccc4ncc(N5CCN(CC6CC6)CC5)nc4c3)ccc2o1 [Compound 153] | > 7.00 | > 7.00 | > 6.00 | > 6.00 |  |  |
| CNC(=O)N1CCN(c2cnc3ccc(-c4ccc5oc(N)nc5c4)cc3n2)CC1 [Compound 154] | > 7.00 | > 6.00 | > 7.00 | > 5.00 |  |  |
| CN1CCC(N(C)c2ncnc3ccc(-c4ccc5oc(N)nc5c4)cc23)CC1 [Compound 155] | > 7.00 | > 7.00 |  |  | < 100 nM | > 6.00 |
| CN1CCN(C(=O)c2cnc3ccc(-c4ccc5oc(N)nc5c4)cc3n2)CC1 [Compound 157] | > 5.00 | < 5.00 | < 5.00 | < 5.00 |  |  |
| Nc1nc2cc(-c3ccc4ncc(C(=O)N5CCOCC5)nc4c3)ccc2o1 [Compound 158] | > 5.00 | < 5.00 | < 5.00 | < 5.00 |  |  |
| CN1CCC(NC(=O)c2cnc3ccc(-c4ccc5oc(N)nc5c4)cn23)CC1 [Compound 159] | > 7.00 | > 6.00 | > 6.00 | > 7.00 |  |  |
| CC(C)N1CCN(C(=O)c2cnc3ccc(-c4ccc5oc(N)nc5c4)cn23)CC1 [Compound 160] | > 7.00 | > 5.00 | < 5.00 | < 5.00 |  |  |
| Nc1nc2cc(-c3ccc4ncc(C(=O)N5CCC(O)CC5)n4c3)ccc2o1 [Compound 162] | > 6.00 | < 5.00 | > 5.00 | < 5.00 |  |  |
| Nc1nc2cc(-c3ccc4ncc(C(=O)N5CCC(N6CCOCC6)CC5)n4c3)ccc2o1 [Compound 163] | > 6.00 | > 5.00 | > 5.00 | > 5.00 |  |  |
| CC1CN(C(=O)c2cnc3ccc(-c4ccc5oc(N)nc5c4)cn23)CCN1 (stereo not drawn) [Compound 164] | > 6.00 | > 6.00 | < 5.00 | < 5.00 |  |  |
| CN1CCC(N(C)C(=O)c2cnc3ccc(-c4ccc5oc(N)nc5c4)cn23)CC1 [Compound 165] | > 6.00 | > 5.00 | < 5.00 | > 5.00 |  |  |
| CN(CCN1CCOCC1)c1cnc2ccc(-c3ccc4oc(N)nc4c3)cc2n1 [Compound 166] | > 6.00 | > 5.00 | > 5.00 | < 5.00 |  |  |
| Nc1nc2cc(-c3ccc4ncc(-c5ccc(N6CCOCC6)nc5)nc4c3)ccc2o1 [Compound 167] | > 5.00 | < 5.00 | < 5.00 | < 5.00 |  |  |
| Nc1nc2cc(-c3ccc4ncc(N5CCC(N)CC5)nc4c3)ccc2o1 [Compound 168] | > 7.00 | > 6.00 | < 5.00 | > 5.00 |  |  |
| CN(C)C1CCN(c2cnc3ccc(-c4ccc5oc(N)nc5c4)cc3n2)CC1 [Compound 172] | > 7.00 | > 7.00 | > 6.00 | > 7.00 |  |  |
| Cc1nccn1-c1cnc2ccc(-c3ccc4oc(N)nc4c3)cc2n1 [Compound 174] | > 7.00 | > 6.00 | > 7.00 | > 5.00 |  |  |
| Nc1nc2cc(-c3ccc4ncc(N5CCCC5)nc4c3)ccc2o1 [Compound 176] | > 7.00 | > 6.00 | > 7.00 | > 6.00 |  |  |
| Nc1nc2cc(-c3ccc4ncc(-c5ccccc5)nc4c3)ccc2o1 [Compound 180] | > 6.00 | < 5.00 | < 5.00 | < 5.00 |  |  |
| CS(=O)(=O)CCN1CCC(Nc2cnc3ccc(-c4ccc5oc(N)nc5c4)cc3n2)CC1 [Compound 181] | > 7.00 | > 5.00 | > 7.00 | > 6.00 |  |  |
| CCn1cnc2ccc(-c3ccc4oc(N)nc4c3)cc2c1=O [Compound 183] | > 7.00 | > 5.00 | > 7.00 | > 5.00 |  |  |
| Cc1ncccc1-c1cnc2ccc(-c3ccc4oc(N)nc4c3)cc2n1 [Compound 185] | > 6.00 | < 5.00 | < 5.00 | < 5.00 |  |  |
| NCC(=O)N1CCN(c2cnc3ccc(-c4ccc5oc(N)nc5c4)cc3n2)CC1 [Compound 192] | > 7.00 | > 6.00 | > 6.00 | > 6.00 |  |  |
| Cc1ccc(-c2cnc3ccc(-c4ccc5oc(N)nc5c4)cc3n2)cn1 [Compound 194] | > 7.00 | < 5.00 | > 7.00 | < 5.00 |  |  |
| Nc1nc2cc(-c3ccc4ncn(C5CCC5)c(=O)c4c3)ccc2o1 [Compound 205] | > 7.00 | < 5.00 | < 5.00 | < 5.00 |  |  |
| CC(C)n1cnc2ccc(-c3ccc4oc(N)nc4c3)cc2c1=O [Compound 206] | > 7.00 | < 5.00 | > 6.00 | < 5.00 |  |  |
| CN(C)CC(=O)N1CCN(c2cnc3ccc(-c4ccc5oc(N)nc5c4)cc3n2)CC1 [Compound 217] | > 7.00 | > 6.00 | > 6.00 | > 6.00 |  |  |

More lines, main results first:

| pIC50 (PI3K α (p110α/p85α)) | pIC50 (PI3K β (p110β/p85α)) | pIC50 (PI3K γ (p110γ)) | pIC50 (PI3K δ; read-out: PI3K δ IC50) | Compound | IC50 (PI3K γ (p110γ); PI3K γ IC50 (nM)) | pIC50 (PI3K δ) |
| --- | --- | --- | --- | --- | --- | --- |
| > 7.00 | > 6.00 | > 6.00 | > 6.00 | CC(C)(C)N1CCN(c2cnc3ccc(-c4ccc5oc(N)nc5c4)cc3n2)CC1 [Compound 182] |  |  |
| > 7.00 | > 5.00 | > 6.00 | < 5.00 | Nc1nc2cc(-c3ccc4ncn(CCO)c(=O)c4c3)ccc2o1 [Compound 184] |  |  |
| > 7.00 | > 5.00 | > 7.00 | > 6.00 | Nc1nc2cc(-c3ccc4ncc(C(=O)N5CCCC5)n4c3)ccc2o1 [Compound 186] |  |  |
| > 7.00 | > 5.00 | > 7.00 | > 6.00 | Nc1nc2cc(-c3ccc4ncc(C(=O)NC5CC5)n4c3)ccc2o1 [Compound 187] |  |  |
| > 7.00 | > 6.00 | > 6.00 | > 6.00 | Nc1nc2cc(-c3ccc4ncc(C(=O)NCCO)n4c3)ccc2o1 [Compound 189] |  |  |
| > 7.00 | > 5.00 | > 5.00 | > 5.00 | CC(C)(C)N1CCN(C(=O)c2cnc3ccc(-c4ccc5oc(N)nc5c4)cn23)CC1 [Compound 191] |  |  |
| > 7.00 | > 6.00 | > 7.00 | > 5.00 | COC(=O)N1CCN(c2cnc3ccc(-c4ccc5oc(N)nc5c4)cc3n2)CC1 [Compound 193] |  |  |
| > 6.00 | > 5.00 | > 7.00 | < 5.00 | Nc1nc2cc(-c3ccc4ncc(-c5ccccn5)nc4c3)ccc2o1 [Compound 195] |  |  |
| > 6.00 | > 5.00 | > 5.00 | < 5.00 | Nc1nc2cc(-c3ccc4ncc(C(=O)N5CCCCC5)n4c3)ccc2o1 [Compound 196] |  |  |
| > 7.00 | > 5.00 | > 7.00 | > 5.00 | Nc1nc2cc(-c3ccc4ncc(C(=O)N5CCC5)n4c3)ccc2o1 [Compound 197] |  |  |
| > 7.00 | > 5.00 | > 7.00 | > 7.00 | CS(=O)(=O)CCN1CCC(NC(=O)c2cnc3ccc(-c4ccc5oc(N)nc5c4)cn23)CC1 [Compound 199] |  |  |
| > 7.00 | > 5.00 | > 7.00 | > 5.00 | Nc1nc2cc(-c3ccc4ncc(C(=O)N5CC(O)C5)n4c3)ccc2o1 [Compound 200] |  |  |
| > 7.00 | > 5.00 | > 5.00 | < 5.00 | CC1CN(C(=O)c2cnc3ccc(-c4ccc5oc(N)nc5c4)cn23)CCO1 (stereo not drawn) [Compound 201] |  |  |
| > 7.00 | > 7.00 | > 7.00 | > 6.00 | CN1CCC(NC(=O)c2cnc3ccc(-c4ccc5oc(N)nc5c4)nn23)CC1 [Compound 203] |  |  |
| > 7.00 | > 7.00 | > 7.00 | > 6.00 | C[C@H](N)C(=O)N1CCN(c2cnc3ccc(-c4ccc5oc(N)nc5c4)cc3n2)CC1 [Compound 207] |  |  |
| > 7.00 | > 6.00 | > 5.00 | > 6.00 | C[C@@H](N)C(=O)N1CCN(c2cnc3ccc(-c4ccc5oc(N)nc5c4)cc3n2)CC1 [Compound 208] |  |  |
| > 7.00 | > 6.00 | > 7.00 | > 5.00 | Nc1nc2cc(-c3ccc4ncc(N5CCC(O)C5)nc4c3)ccc2o1 (stereo not drawn) [Compound 209] |  |  |
| > 6.00 | < 5.00 | < 5.00 | < 5.00 | Nc1ncc(-c2cnc3ccc(-c4ccc5oc(N)nc5c4)cc3n2)cn1 [Compound 210] |  |  |
| > 7.00 | > 7.00 | > 7.00 | > 7.00 | CC(=O)N1CCC(Nc2ncnc3ccc(-c4ccc5oc(N)nc5c4)nc23)CC1 [Compound 211] |  |  |
| > 7.00 | > 6.00 | > 6.00 | > 6.00 | CN1CCC(Nc2ncnc3ccc(-c4ccc5oc(N)nc5c4)nc23)CC1 [Compound 212] |  |  |
| > 7.00 | > 7.00 | > 6.00 | > 5.00 | CNC(=O)C1CN(c2cnc3ccc(-c4ccc5oc(N)nc5c4)cc3n2)C1 [Compound 214] |  |  |
| > 7.00 | > 6.00 | > 6.00 | > 5.00 | Nc1nc2cc(-c3ccc4ncc(N5CC(C(=O)NC6CC6)C5)nc4c3)ccc2o1 [Compound 215] |  |  |
| > 6.00 | > 6.00 | > 5.00 | > 6.00 | CCN(CC)CCNc1cnc2ccc(-c3ccc4oc(N)nc4c3)cc2n1 [Compound 218] |  |  |
| > 6.00 | > 6.00 | > 6.00 | > 6.00 | Nc1nc2cc(-c3ccc4ncc(NCCN5CCCC5)nc4c3)ccc2o1 [Compound 219] |  |  |
| > 7.00 | > 6.00 | > 6.00 | > 7.00 | CCN(CC)CCCNc1cnc2ccc(-c3ccc4oc(N)nc4c3)cc2n1 [Compound 220] |  |  |
